The nature of data set [1]: Drug distribution in BALB/c mouse spleen xenografted with human A549 cells at 22.23 mg/kg, iv measured after 24 hrs by HPLC analysis. It counts as ADME, organism-based. To be noted: in vivo. In general terms: In xenograft studies the graft and the host belong to different species.
Data set [2] concerns SW480. The experiment in a line: Antitumor activity against human SW480 cells xenografted in BALB/c mouse assessed as tumor burden at 0.1 mg/kg, iv administered once every 2 days for 18 days (reference value: 1.88%). The class given is functional. Particulars: time 18 day.
A short description of data set [3]: Drug distribution in BALB/c mouse heart xenografted with human A549 cells at 22.23 mg/kg, sc measured after 24 hrs by HPLC analysis. It counts as ADME, organism-based. Particulars: in vivo.
The subject of data set [4] is SW480. The experiment in a line: Antitumor activity against human SW480 cells xenografted in BALB/c mouse assessed as reduction in tumor volume at 0.1 mg/kg, iv administered once every 2 days and measured on day 8. The class given is functional, organism-based. To be noted: time 8.0 day.
Data set [5] in a line: Stability in human plasma assessed as drug hydrolysis after 15 mins by HPLC analysis. It counts as ADME, cell-free. Particulars: read-out: Drug degradation.
Data set [6] has as its system HT-29. The data set can be described thus: Potency index, ratio of CPT IC50 to test compound IC50 for cytotoxicity against human HT-29 cells. The class given is functional.
Data set [7] has as its system SW480. The experiment in a line: Antitumor activity against human SW480 cells xenografted in BALB/c mouse assessed as decrease in Ki67 expression at 0.1 mg/kg, iv administered once every 2 days for 18 days by immunohistochemical analysis. It counts as functional, organism-based. Particulars: time 18.0 day.
Data set [8] is described as follows: Drug uptake in human SW480 cells assessed as increase in blue fluorescence at 30 uM incubated for 1 hr by DRAQ5 staining based confocal microscopy analysis. It counts as ADME, cell-based. Particulars: sw480, 1 h.
Data set [9] deals with SW480. The data set can be described thus: Antitumor activity against human SW480 cells xenografted in BALB/c mouse assessed as fold decrease in cell viability by measuring Ki67 positive cells at 0.1 mg/kg, iv administered once every 2 days for 18 days by immunohistochemical analysis relative to CPT. To be noted: time 18 day. The class given is functional.
For data set [10], the system named is SW480. The experiment in a line: Antitumor activity against human SW480 cells xenografted in BALB/c mouse assessed as increase in body weight at 0.1 mg/kg, iv administered once every 2 days and measured after 12 days. It counts as functional, organism-based. Particulars: time 12.0 day.
Data set [11] concerns SW480. The experiment in a line: Antitumor activity against human SW480 cells xenografted in BALB/c mouse assessed as fold decrease in cell viability by measuring Ki67 positive cells at 0.1 mg/kg, iv administered once every 2 days for 18 days by immunohistochemical analysis relative to control. Particulars: time 18 day. It counts as functional.
Data set [12] relates to CCD-18Co. The data set can be described thus: Cytotoxicity against human CCD-18Co cells assessed as reduction in cell viability incubated for 48 hrs by MTT assay. It counts as toxicity, cell-based.
Data set [13] relates to SW480. The data set can be described thus: Antitumor activity against human SW480 cells xenografted in BALB/c mouse assessed as tumor inhibition rate at 0.1 mg/kg, iv administered once every 2 days for 18 days. It counts as functional. Details: scale not given: the % may be the effect or the level left. To be noted: time 18 day.
The subject of data set [14] is HT-29. The experiment in a line: Cytotoxicity against human HT-29 cells assessed as reduction in cell viability at 10 to 50 uM incubated for 48 hrs by MTT assay. It counts as functional, cell-based. Particulars: dose 10-50 µM. On the technique in general: Formazan colour is commonly taken as a measure of viable cells.
Data set [15] is described as follows: Drug distribution in BALB/c mouse tumor xenografted with human A549 cells at 22.23 mg/kg, sc measured after 24 hrs by HPLC analysis. It counts as ADME, organism-based, Neoplasm. Particulars: in vivo.
Data set [16] deals with SW480. The data set can be described thus: Potency index, ratio of CPT IC50 to test compound IC50 for cytotoxicity against human SW480 cells. The class given is functional.
In data set [17] the test system is SW480. The data set can be described thus: Cytotoxicity against human SW480 cells assessed as reduction in cell viability incubated for 48 hrs by MTT assay. To be noted: SW480, 48 h. The class given is functional, cell-based.
The subject of data set [18] is HT-29. The data set can be described thus: Cytotoxicity against human HT-29 cells assessed as reduction in cell viability incubated for 48 hrs by MTT assay. It counts as functional, cell-based. To be noted: HT-29, 48 h.
Data set [19] can be described thus: Stability in human plasma assessed as drug hydrolysis after 5 hrs by HPLC analysis. To be noted: read-out: Drug degradation. The class given is ADME, cell-free.
The subject of data set [20] is SW480. The experiment in a line: Antitumor activity against human SW480 cells xenografted in BALB/c mouse assessed as reduction in tumor volume at 0.1 mg/kg, iv administered once every 2 days and measured on day 18. To be noted: time 18 day. Details: scale not given: the % may be the effect or the level left. The class given is functional.
Data set [21] in a line: Drug distribution in BALB/c mouse lung xenografted with human A549 cells at 22.23 mg/kg, sc measured after 24 hrs by HPLC analysis. The class given is ADME, organism-based. Particulars: in vivo.
The test system of data set [22] is HT-29. The experiment in a line: Cytotoxicity against human HT-29 cells assessed as reduction in cell viability at greater than 0.078 uM incubated for 48 hrs by MTT assay. The class given is functional, cell-based.
Data set [23] in a line: Drug distribution in BALB/c mouse tumor xenografted with human A549 cells at 22.23 mg/kg, iv measured after 24 hrs by HPLC analysis. It counts as ADME, organism-based, Neoplasm. Particulars: in vivo.
The subject of data set [24] is SW480. The data set can be described thus: Antitumor activity against human SW480 cells xenografted in BALB/c mouse assessed as tumor growth inhibition at 0.1 mg/kg, iv administered once every 2 days for 18 days. The class given is functional, organism-based. Particulars: time 18.0 day.
Data set [25] can be described thus: Stability in human plasma assessed as parent compound remaining after 18 hrs by HPLC analysis. The class given is ADME, cell-free. Particulars: read-out: Stability.
For data set [26], the system named is SW480. The experiment in a line: Cytotoxicity against human SW480 cells assessed as cell viability at 25 uM incubated for 48 hrs by MTT assay. The class given is functional. Particulars: read-out: Activity.
Data set [27] concerns THP-1. The data set can be described thus: Cytotoxicity against human THP-1 cells assessed as reduction in cell viability incubated for 48 hrs by MTT assay. It counts as toxicity, cell-based. Particulars: thp-1, 48 h.
Data set [28] can be described thus: Drug distribution in BALB/c mouse heart xenografted with human A549 cells at 22.23 mg/kg, iv measured after 24 hrs by HPLC analysis. Particulars: in vivo. The class given is ADME, organism-based.
Data set [29] concerns HT-29. The data set can be described thus: Cytotoxicity against human HT-29 cells assessed as cell viability at 25 uM incubated for 48 hrs by MTT assay. Particulars: read-out: Activity. The class given is functional.
The nature of data set [30]: Drug distribution in BALB/c mouse spleen xenografted with human A549 cells at 2.5 mg/kg, sc measured after 24 hrs by HPLC analysis. The class given is ADME, organism-based. Particulars: in vivo.
Data set [31] can be described thus: Drug distribution in BALB/c mouse heart xenografted with human A549 cells at 2.5 mg/kg, iv measured after 24 hrs by HPLC analysis. It counts as ADME, organism-based. To be noted: in vivo.
In data set [32] the test system is SW480. The experiment in a line: Antitumor activity against human SW480 cells xenografted in BALB/c mouse assessed as tumor inhibition rate at 0.019 mg/kg, iv administered once every 2 days for 18 days. Details: scale not given: the % may be the effect or the level left. Particulars: time 18 day. It counts as functional.
Data set [33] concerns SW480. The experiment in a line: Antitumor activity against human SW480 cells xenografted in BALB/c mouse assessed as increase in body weight at 0.019 mg/kg, iv administered once every 2 days and measured after 12 days. It counts as functional, organism-based. To be noted: time 12.0 day.
Data set [34] can be described thus: Drug distribution in BALB/c mouse lung xenografted with human A549 cells at 2.5 mg/kg, iv measured after 24 hrs by HPLC analysis. To be noted: in vivo. The class given is ADME, organism-based.
Data set [35] can be described thus: Drug distribution in BALB/c mouse lung xenografted with human A549 cells at 2.5 mg/kg, sc measured after 24 hrs by HPLC analysis. The class given is ADME, organism-based. To be noted: in vivo.
For data set [36], the system named is SW480. The data set can be described thus: Antitumor activity against human SW480 cells xenografted in BALB/c mouse assessed as reduction in tumor volume at 0.019 mg/kg, iv administered once every 2 days and measured on day 18. The class given is functional. Details: scale not given: the % may be the effect or the level left. To be noted: time 18 day.
Data set [37] can be described thus: Drug distribution in BALB/c mouse spleen xenografted with human A549 cells at 2.5 mg/kg, iv measured after 24 hrs by HPLC analysis. The class given is ADME, organism-based. To be noted: in vivo.
Data set [38] is described as follows: Drug distribution in BALB/c mouse heart xenografted with human A549 cells at 2.5 mg/kg, sc measured after 24 hrs by HPLC analysis. The class given is ADME, organism-based. Particulars: in vivo.
The subject of data set [39] is SW480. The data set can be described thus: Antitumor activity against human SW480 cells xenografted in BALB/c mouse assessed as tumor burden at 0.019 mg/kg, iv administered once every 2 days for 18 days (reference value: 1.88%). It counts as functional. To be noted: time 18 day.

Calls of active or inactive are those of the source. The rule behind the calls is not given here.

For `CC[C@@]1(OC(=O)CCCOCCOCCONC(=O)CCN2C(=O)CC(SC[C@H](NC(C)=O)C(=O)N[C@H]3CSSC[C@@H](C(=O)O)NC(=O)[C@H](CC(=O)O)NC(=O)[C@@H]4CCCN4C(=O)CNC(=O)[C@H](CCCCN)NC(=O)[C@H](CC(=O)O)NC(=O)CNC(=O)[C@H](CCCNC(=N)N)NC3=O)C2=O)C(=O)OCc2c1cc1n(c2=O)Cc2cc3ccccc3nc2-1` (stereo partly drawn), the Drug uptake entry in [1], in data set [3], in data set [8], in data set [15], in data set [21] and in [23] was “Active” each time. Further, the Drug uptake result in data set [28] was “Active”. For the same molecule, the Activity is 1.44% in [2]; “Non-Toxic” in data set [12]; 75% in [13]; 39.7% in [20]; “Non-Toxic” in data set [27]. In addition, the result in data set [4], in [7], in data set [10], in [14], in data set [22] and in [24] was Active. For the same molecule, in data set [5], the metabolised at 0.25 h worked out at 1.4%. For the same molecule, the “Ratio IC50” value in data set [6] stood at 6.7; in data set [16], 24. Also, the figures for the “fold change (FC)” value in [9] and in [11] were 6.4 and 10.5, respectively. The results for the IC50 in data set [17] and in data set [18] were 0.32 µM and 0.35 µM, respectively. Also, in data set [19], the metabolised at 5 h was 15.5%. Moreover, the remaining at 18 h in [25] was determined as 76.4%. For the same molecule, the figures for the viability at 25 µM in data set [26] and in [29] were 22.3% and 16.3%, respectively.
Take `CC[C@@]1(O)C(=O)OCc2c1cc1n(c2=O)Cc2cc3ccccc3nc2-1` [CAMPTOTHECIN]: the Drug uptake entry in data set [30], in data set [31], in data set [34], in [35], in data set [37] and in data set [38] was “Active” throughout. Besides, the values for the Activity in data set [32], in [36] and in [39] were 56%, 6.8% and 1.59%, respectively. In [33], the outcome was inactive. Further, the IC50 turned out to be 8.56 µM in [17] and 2.35 µM in data set [18]. Moreover, the viability at 25 µM in [26] amounted to 29.5%; in data set [29], 32.4%.

For orientation: IC50 means the midpoint of a concentration-inhibition curve.

(Values after ChEMBL document CHEMBL5518168, “Tumor-homing peptide iRGD-conjugate enhances tumor accumulation of camptothecin for colon cancer therapy” (Eur J Med Chem, 2024).)
